Like-named read-outs stand apart in the source and are kept apart here.
Assays:
Assay type in all cases: in vivo
[1] = tested on: Mexican bean beetle (Epilachna varivestis); test: Foliar application, Mexican bean beetle mortality; conditions: read-out: Mortality (% killed)
Experimental: (§1) The compounds were also tested in foliar applications at various concentrations in aqueous solutions containing 10% acetone and 0.25% emulsifier. The plants (English fava bean for pea aphid and pinto bean for the remaining species) were placed on a revolving turntable in a hood, and the test solutions were applied with a sprayer. The test solutions were applied to the upper and lower surfaces of the plant leaves while the turntable revolved 10 times (5 for upper surface and 5 for lower surface). The total spray time was approximately one minute, and the leaves were covered to runoff. In every case the lowest rate was applied first and the highest rate last. The plants were then allowed to dry. The treated leaves were removed and placed in 240 ml or 480 ml wax treated containers. Ten individuals of the appropriate species were placed in each container and the container capped. Mortality was read 48 hours post-treatment unless otherwise noted. Two replicates of ten individuals were made at each rate. Foliar evaluation used southern armyworm (Spodoptera eridania), Mexican bean beetle (Epilachna varivestis), pea aphid (Acyrthosiphon pisum), and twospotted spider mite (Tetranychus urticae).

[2] = tested on: large milkweed bug (Oncopeltus fasciatus); test: Topical application to large milkweed bug; conditions: MWB, 24 hours after application
Experimental: (§2) The activity was evaluated in topical application to southern armyworm (Spodoptera eridania), Mexican bean beetle (Epilachna varivestis), large milkweed bug (Oncopeltus fasciatus), cabbage looper (Trichoplusia ni), and tobacco budworm (Heliothis virescens). Two replicates of 10 test larvae per replicate were placed in 9 cm petri dishes, each lined with a piece of filter paper and a food source. On the second or third dorsal thoracic segment of each larva was placed a 1 microliter droplet containing the desired amount of the test compound in acetone. The toxic effect of the compound was determined 24 hours after application. An insect was considered dead if it could no longer right itself and move in an oriented pattern.

[3] = tested on: tobacco budworm (Heliothis virescens); test: Topical application to tobacco budworm; conditions: TBW, 24 hours after application
Experimental: as §2

[4] = tested on: southern armyworm (Spodoptera eridania); test: Foliar application, southern armyworm mortality; conditions: read-out: Mortality (% killed)
Experimental: as §1

[5] = tested on: Mexican bean beetle (Epilachna varivestis); test: Topical application to Mexican bean beetle; conditions: MBB, 24 hours after application
Experimental: as §2

[6] = tested on: southern armyworm (Spodoptera eridania); test: Topical application to southern armyworm larvae; conditions: SAW, 24 hours after application
Experimental: as §2

[7] = tested on: pea aphid (Acyrthosiphon pisum); test: Foliar application, pea aphid mortality; conditions: read-out: Mortality (% killed)
Experimental: as §1

[8] = tested on: cabbage looper (Trichoplusia ni); test: Topical application to cabbage looper; conditions: CL, 24 hours after application
Experimental: as §2

[9] = tested on: twospotted spider mite (Tetranychus urticae); test: Foliar application, twospotted spider mite mortality; conditions: read-out: Mortality (% killed)
Experimental: as §1

CC1(C)[C@H](C=C(Cl)Cl)[C@@H]1C(=O)OCc1cccc2c1CCc1ccccc1-2 (relative stereo) [Ex. I (cis), (9,10-dihydro-1-phenanthryl)methyl cis-3-(2,2-dichloroethenyl)-2,2-dimethylcyclopropanecarboxylate]
mortality at 16 ppm ([1]; MBB, foliar, 48 hours): 30% | mortality at 32 ppm ([1]; MBB, foliar, 48 hours): 35% | mortality at 80 ppm ([1]; MBB, foliar, 80 ppm, 48 hours): 75% | LD50 [2]: 176 ng/insect | LD50 [3]: 193 ng/insect | mortality at 16 ppm ([4]; SAW, foliar, 48 hours): 10% | mortality at 32 ppm ([4]; SAW, foliar, 32 ppm, 48 hours): 30% | mortality at 80 ppm ([4]; SAW, foliar, 80 ppm, 48 hours): 80% | LD50 [5]: 64 ng/insect | LD50 [6]: 121 ng/insect | mortality at 16 ppm ([7]; PA, foliar, 48 hours): 55% | mortality at 32 ppm ([7]; PA, foliar, 48 hours): 90% | LD50 [8]: 241 ng/insect

CC1(C)[C@H](C(=O)OCc2cccc3c2CCc2ccccc2-3)[C@@H]1C=C(Cl)C(F)(F)F (relative stereo) [Ex. II (cis), (9,10-dihydro-1-phenanthryl)methyl cis-3-(2-chloro-3,3,3-trifluoromethyl-1-propenyl)-2,2-dimethylcyclopropanecarboxylate]
mortality at 8 ppm ([1]; 48 h): 90% | LD50 [2]: 170 ng/insect | LD50 [3]: 45 ng/insect | mortality at 32 ppm ([9]; 48 h): 78% | mortality at 8 ppm ([4]; 48 h): 30% | mortality at 32 ppm ([4]; 48 h): 95% | LD50 [5]: 9.4 ng/insect | LD50 [6]: 36 ng/insect | mortality at 10 ppm ([7]; 48 h): 85% | LD50 [8]: 61 ng/insect

CC1(C)[C@H](C=C(Cl)Cl)[C@@H]1C(=O)OCc1cccc2c1CCCc1ccccc1-2 (relative stereo) [Ex. III (cis), (6,7-dihydro-5H-dibenzo[a,c]cyclohepten-4-yl)methyl cis-3-(2,2-dichloroethenyl)-2,2-dimethylcyclopropanecarboxylate]
mortality at 4.5 ppm ([1]; MBB, foliar, 4.5 ppm, 48 hours): 55% | mortality at 10 ppm ([1]; MBB, foliar, 10 ppm, 48 hours): 85% | LD50 [2]: 104 ng/insect | LD50 [3]: 375 ng/insect | mortality at 10 ppm ([9]; TSM, foliar, 10 ppm, 48 hours): 13% | mortality at 4.5 ppm ([4]; SAW, foliar, 4.5 ppm, 48 hours): 5% | mortality at 10 ppm ([4]; SAW, foliar, 10 ppm, 48 hours): 40% | LD50 [5]: 11 ng/insect | LD50 [6]: 96 ng/insect | mortality at 4.5 ppm ([7]; PA, foliar, 4.5 ppm, 48 hours): 55% | mortality at 10 ppm ([7]; PA, foliar, 10 ppm, 48 hours): 90% | LD50 [8]: 62 ng/insect

CC1(C)[C@@H](C=C(Cl)Cl)[C@@H]1C(=O)OCc1cccc2c1CCCc1ccccc1-2 (relative stereo) [Ex. III (trans), (6,7-dihydro-5H-dibenzo[a,c]cyclohepten-4-yl)methyl trans-3-(2,2-dichloroethenyl)-2,2-dimethylcyclopropanecarboxylate]
mortality at 4 ppm ([1]; MBB, foliar, 48 hours): 20% | mortality at 16 ppm ([1]; MBB, foliar, 48 hours): 55% | LD50 [2]: 315 ng/insect | LD50 [3]: 355 ng/insect | mortality at 4 ppm ([4]; SAW, foliar, 48 hours): 10% | mortality at 16 ppm ([4]; SAW, foliar, 48 hours): 100% | LD50 [5]: 50 ng/insect | LD50 [6]: 95 ng/insect | mortality at 4 ppm ([7]; PA, foliar, 48 hours): 80% | mortality at 16 ppm ([7]; PA, foliar, 48 hours): 90% | LD50 [8]: 92 ng/insect

CC1(C)[C@H](C(=O)OCc2cccc3c2CCCc2ccccc2-3)[C@@H]1C=C(Cl)C(F)(F)F (relative stereo) [Ex. IV (cis), (6,7-dihydro-5H-dibenzo[a,c]cyclohepten-4-yl)methyl cis-3-(2-chloro-3,3,3-trifluoromethyl-1-propenyl)-2,2-dimethylcyclopropanecarboxylate]
mortality at 2.1 ppm ([1]; 48 h): 100% | LD50 [2]: 83 ng/insect | LD50 [3]: 212 ng/insect | mortality at 2.1 ppm ([9]; 48 h): 4% | mortality at 10 ppm ([9]; 48 h): 100% | mortality at 10 ppm ([4]; 48 h): 75% | LD50 [5]: 4.26 ng/insect | LD50 [6]: 54 ng/insect | mortality at 0.25 ppm ([7]; 48 h): 80% | LD50 [8]: 64 ng/insect

CC1(C)[C@H](C(=O)OCc2cccc3c2Cc2ccccc2-3)[C@@H]1C=C(Cl)Cl (relative stereo) [Ex. V (cis), 9H-fluorene-1-methyl cis-3-(2,2-dichloroethenyl)-2,2-dimethylcyclopropanecarboxylate]
mortality at 64 ppm ([1]; 48 h): 0% | mortality at 500 ppm ([9]; 48 h): 0% | mortality at 64 ppm ([4]; 48 h): 0% | mortality at 500 ppm ([4]; 48 h): 100% | LD50 [5]: 3320 ng/insect | LD50 [6]: 460 ng/insect | mortality at 64 ppm ([7]; 48 h): 30% | mortality at 500 ppm ([7]; 48 h): 90%

CC1(C)[C@@H](C=C(Cl)Cl)[C@@H]1C(=O)OCc1cccc2c1Cc1ccccc1-2 (relative stereo) [Ex. V (trans), 9H-fluorene-1-methyl trans-3-(2,2-dichloroethenyl)-2,2-dimethylcyclopropanecarboxylate]
mortality at 64 ppm ([1]; 48 h): 15% | mortality at 500 ppm ([9]; 48 h): 0% | mortality at 64 ppm ([4]; 48 h): 0% | mortality at 500 ppm ([4]; 48 h): 25% | mortality at 64 ppm ([7]; 48 h): 20% | mortality at 500 ppm ([7]; 48 h): 0%

CC1(C)[C@H](C(=O)OCc2cccc3c2Cc2ccccc2-3)[C@@H]1C=C(Cl)C(F)(F)F (relative stereo) [Ex. VI (cis), 9H-fluorene-1-methyl cis-3-(2-chloro-3,3,3-trifluoromethyl-1-propenyl)-2,2-dimethylcyclopropanecarboxylate]
mortality at 64 ppm ([1]; 48 h): 0% | mortality at 500 ppm ([9]; 48 h): 0% | mortality at 64 ppm ([4]; 48 h): 95% | mortality at 500 ppm ([4]; 48 h): 100% | LD50 [5]: 762 ng/insect | LD50 [6]: 1160 ng/insect | mortality at 64 ppm ([7]; 48 h): 50% | mortality at 500 ppm ([7]; 48 h): 90%

CC1(C)[C@H](C=C(Cl)C(F)(F)F)[C@@H]1C(=O)OCc1cccc2c1CCCCc1ccccc1-2 (relative stereo) [Ex. VII (cis), (5,6,7,8-tetrahydrodibenzo[a,c]cycloocten-4-yl)methyl cis-3-(2-chloro-3,3,3-trifluoropropenyl)-2,2-dimethylcyclopropanecarboxylate]
mortality at 4 ppm ([1]; MBB, foliar, 48 hours): 95% | LD50 [2]: 396 ng/insect | mortality at 16 ppm ([9]; TSM, foliar, 48 hours): 24% | LD50 [5]: 20.6 ng/insect | LD50 [6]: 410 ng/insect | mortality at 4 ppm ([7]; PA, foliar, 48 hours): 0%

CC1(C)[C@H](C=C(Cl)Cl)[C@@H]1C(=O)OCc1cccc(-c2ccccc2)c1 (relative stereo) [Ref., [(1,1biphenyl)-3-yl]methyl cis3-(2,2-dichloroethenyl)-2,2-dimethylcyclopropanecarboxylate, reference compound]
mortality at 32 ppm ([1]; MBB, foliar, 48 hours): 50% | LD50 [2]: 620 ng/insect | LD50 [3]: 2330 ng/insect | mortality at 500 ppm ([9]; TSM, foliar, 500 ppm, 48 hours): 33% | mortality at 4 ppm ([4]; SAW, foliar, 48 hours): 90% | LD50 [5]: 18 ng/insect | LD50 [6]: 27 ng/insect | mortality at 32 ppm ([7]; PA, foliar, 48 hours): 70% | LD50 [8]: 560 ng/insect

CC1(C)[C@H](C(=O)OCc2cccc3c2CCCCc2ccccc2-3)[C@@H]1C=C(Cl)Cl [Ex. VIII (1R,cis), (5,6,7,8-tetrahydrodibenzo[a,c]cycloocten-4-yl)methyl 1R,cis-3-(2,2-dichloroethenyl)-2,2-dimethylcyclopropanecarboxylate]
mortality at 4 ppm ([1]; MBB, foliar, 48 hours): 50% | LD50 [2]: 460 ng/insect | mortality at 16 ppm ([9]; TSM, foliar, 48 hours): 14% | LD50 [6]: 201 ng/insect | mortality at 4 ppm ([7]; PA, foliar, 48 hours): 0%

From patent publication US4433182A, “Insecticidal 2,2'-bridged[1,1'-biphenyl]-3-ylmethyl esters” (FMC Corporation, priority 1981, dated 1984)
